Test results: patent US7550510B2, “Solid phase synthesis of arylretinamides” (Wisconsin Alumni Research Foundation, priority 2001, dated 2009)

How the values were obtained:
MCF-7 cells [1] = experiment: Induction of apoptosis in MCF-7 cells, TUNEL assay; type: cell-based; details: MCF-7 human breast cancer cell line, FIG. 4
Source text: When DNA strands are cleaved or nicked by nucleases, a large number of 3′-hydroxyl ends are exposed. In the TUNEL assay (terminal deoxynucleotidyl transferase dUTP nick end labeling), these ends are labeled with UTP using mammalian terminal deoxynucleotidyl transferase (TdT), which covalently adds labeled nucleotides to the 3′-hydroxyl ends of these DNA fragments in a template-independent fashion. The UTP is then detected using specific probes (e.g., you can incorporate BrdUTP and then use a fluorescent anti-BrdU antibody). The assay can be used on cells in situ or the cells can be analyzed by flow cytometry.
The ability of arylretinamides 1, 7, 10, 11, 18, 19, 27, 32, 33, 41, 42, and 44 to induce apoptosis in MCF-7 cells was determined using a TUNEL assay as described in Engeland, M V; Nieland, L J W; Ramackers, F C S; Schutte, B; Reutelingsperger, CPM Cytometry 1998, 31, 1, which is specifically incorporated by reference.

MCF-7 cells [2] = experiment: Inhibition of growth of cultured MCF-7 cells (cell number 48 h after a single dose); type: cell-based, human; details: activity vs. 4-HPR standard
Method: MCF-7 cells were maintained in DMEM supplemented as recommended by ATCC. Cells were plated (10,000/well) and dosed 24 h later dosed with the arylretinamide.

[3] = all at 10^−5 M, 48 hours after a single dose

| Compound | melting point [°C] | growth inhibition (MCF-7 cells [2]; [3]) | further results |
| --- | --- | --- | --- |
| CC1=C(/C=C/C(C)=C/C=C/C(C)=C/C(=O)Nc2cc(C)c(O)cc2C)C(C)(C)CCC1 [Compound 2, N-(4′-hydroxy-2′,5′-dimethylphenyl)retinamide] |  | − |  |
| CC1=C(/C=C/C(C)=C/C=C/C(C)=C/C(=O)Nc2c(C)cccc2O)C(C)(C)CCC1 [Compound 6, N-(2′-hydroxy-6′-methylphenyl)retinamide] |  | − |  |
| COc1ccc(NC(=O)/C=C(C)/C=C/C=C(C)/C=C/C2=C(C)CCCC2(C)C)cc1O [Compound 9, N-(3′-hydroxy-4′-methoxyphenyl)retinamide] | 119 to 124 | − |  |
| CC1=C(/C=C/C(C)=C/C=C/C(C)=C/C(=O)Nc2cc(Br)c(O)c(Br)c2)C(C)(C)CCC1 [Compound 14, N-(3′,5′-dibromo-4′-hydroxyphenyl)retinamide] |  | − |  |
| CC1=C(/C=C/C(C)=C/C=C/C(C)=C/C(=O)Nc2ccc(O)c([N+](=O)[O-])c2)C(C)(C)CCC1 [Compound 17, N-(4′-hydroxy-3′-nitrophenyl)retinamide] | 157 to 159.5 | − |  |
| COC(=O)c1cccc(NC(=O)/C=C(C)/C=C/C=C(C)/C=C/C2=C(C)CCCC2(C)C)c1O [Compound 20, N-(2′-hydroxy-3′-carboxymethylphenyl)retinamide] |  | − |  |
| CC1=C(/C=C/C(C)=C/C=C/C(C)=C/C(=O)Nc2cccc(C(=O)O)c2O)C(C)(C)CCC1 [Compound 21, N-(2′-hydroxy-3′-carboxyphenyl)retinamide] |  | − |  |
| CC1=C(/C=C/C(C)=C/C=C/C(C)=C/C(=O)Nc2ccc(C(=O)O)cc2O)C(C)(C)CCC1 [Compound 22, N-(2′-hydroxy-4′-carboxyphenyl)retinamide] |  | − |  |
| CC1=C(/C=C/C(C)=C/C=C/C(C)=C/C(=O)Nc2c(O)cccc2C(=O)O)C(C)(C)CCC1 [Compound 24, N-(2′-hydroxy-6′-carboxyphenyl)retinamide] |  |  | growth inhibition (MCF-7 cells [2]; compound at 3.9 × 10^−6 M): − |
| CC1=C(/C=C/C(C)=C/C=C/C(C)=C/C(=O)Nc2ccc(C(=O)O)c(O)c2)C(C)(C)CCC1 [Compound 26, N-(3′-hydroxy-4′-carboxyphenyl)retinamide] |  | − |  |
| COC(=O)c1cc(NC(=O)/C=C(C)/C=C/C=C(C)/C=C/C2=C(C)CCCC2(C)C)ccc1O [Compound 27, N-(4′-hydroxy-3′-carboxymethylphenyl)retinamide] |  | + (+ = <50% the activity of standard) |  |
| CC1=C(/C=C/C(C)=C/C=C/C(C)=C/C(=O)Nc2ccc(O)c(C(=O)O)c2)C(C)(C)CCC1 [Compound 28, N-(4′-hydroxy-3′-carboxyphenyl)retinamide] |  | − |  |
| COC(=O)c1ccc(O)c(NC(=O)/C=C(C)/C=C/C=C(C)/C=C/C2=C(C)CCCC2(C)C)c1 [Compound 29, N-(2′-hydroxy-5′-carboxymethylphenyl)retinamide] |  | − |  |
| CCS(=O)(=O)c1ccc(NC(=O)/C=C(C)/C=C/C=C(C)/C=C/C2=C(C)CCCC2(C)C)c(O)c1 [Compound 30, N-(4′-ethylsulfonyl-2′-hydroxyphenyl)retinamide] | 145 to 147 | − |  |
| CC1=C(/C=C/C(C)=C/C=C/C(C)=C/C(=O)Nc2ccccc2CO)C(C)(C)CCC1 [Compound 31, N-(2′-hydroxymethylphenyl)retinamide] | 72 to 74 |  |  |
| CC1=C(/C=C/C(C)=C/C=C/C(C)=C/C(=O)Nc2cccc(CO)c2)C(C)(C)CCC1 [Compound 32, N-(3′ hydroxymethylphenyl)retinamide] | 118 to 120.5 | + (+ = <50% the activity of standard) | inducing apoptosis of cells (MCF-7 cells [1]): perhaps, 32 are effective at inducing apopotosis |
| CC1=C(/C=C/C(C)=C/C=C/C(C)=C/C(=O)Nc2ccc(N)cc2)C(C)(C)CCC1 [Compound 33, N-(4′-aminophenyl)retinamide] |  | + (+ = <50% the activity of standard) |  |
| CC1=C(/C=C/C(C)=C/C=C/C(C)=C/C(=O)Nc2ccc(O)cc2)C(C)(C)CCC1 [Compound 41, N-(4′-hydroxyphenyl)retinamide, reference compound] |  | ++ (++ = >50% the activity of standard) |  |
| CC(C=CC1=C(C)CCCC1(C)C)=CC=CC(C)=CC(=O)Nc1ccccc1C(=O)O [Compound 44, N-(2′-carboxyphenyl)retinamide, reference compound] |  | + (+ = <50% the activity of standard) |  |
| CCOc1ccc(NC(=O)/C=C(C)/C=C/C=C(C)/C=C/C2=C(C)CCCC2(C)C)cc1 [Compound 45, N-(4′-ethoxyphenyl)retinamide, reference compound] |  |  | growth inhibition (MCF-7 cells [2]; compound at 7.4 × 10^−6 M): − |

Continued, in another order:

| melting point [°C] | Compound | growth inhibition (MCF-7 cells [2]; [3]) | further results |
| --- | --- | --- | --- |
| 141 to 145 | CC1=C(/C=C/C(C)=C/C=C/C(C)=C/C(=O)Nc2ccc(O)cc2C)C(C)(C)CCC1 [Compound 1, N-(2′-methyl-4′-hydroxyphenyl)retinamide] | − | inducing apoptosis of cells (MCF-7 cells [1]): effective at inducing apopotosis |
| 146 to 147.5 | CC1=C(/C=C/C(C)=C/C=C/C(C)=C/C(=O)Nc2ccc(C)cc2O)C(C)(C)CCC1 [Compound 3, N-(2′-hydroxy-4′-methylphenyl)retinamide] | − |  |
| 98 to 100 | CC1=C(/C=C/C(C)=C/C=C/C(C)=C/C(=O)Nc2cc(C)ccc2O)C(C)(C)CCC1 [Compound 4, N-(2′-hydroxy-5′-methylphenyl)retinamide] | − |  |
| 144 to 146.5 | CC1=C(/C=C/C(C)=C/C=C/C(C)=C/C(=O)Nc2cc(C(C)(C)C)ccc2O)C(C)(C)CCC1 [Compound 5, N-(2′-hydroxy-5′-tert-butylphenyl)retinamide] | − |  |
| 172.5 to 175 | CC1=C(/C=C/C(C)=C/C=C/C(C)=C/C(=O)Nc2ccc(C)c(O)c2)C(C)(C)CCC1 [Compound 7, N-(3′-hydroxy-4′-methylphenyl)retinamide] | + (+ = <50% the activity of standard) | inducing apoptosis of cells (MCF-7 cells [1]): effective at inducing apopotosis |
| 176 to 176.5 | CC1=C(/C=C/C(C)=C/C=C/C(C)=C/C(=O)Nc2cccc(O)c2C)C(C)(C)CCC1 [Compound 8, N-(3′-hydroxy-2′-methylphenyl)retinamide] | − |  |
| 131.5 to 132.5 | CC1=C(/C=C/C(C)=C/C=C/C(C)=C/C(=O)Nc2ccc(O)cc2Cl)C(C)(C)CCC1 [Compound 10, N-(2′-chloro-4′-hydroxyphenyl)retinamide] | − |  |
| 168 to 169 | CC1=C(/C=C/C(C)=C/C=C/C(C)=C/C(=O)Nc2ccc(O)c(Cl)c2)C(C)(C)CCC1 [Compound 11, N-(3′-chloro-4′-hydroxyphenyl)retinamide] | + (+ = <50% the activity of standard) | inducing apoptosis of cells (MCF-7 cells [1]): effective at inducing apopotosis |
| 115 to 118 | CC1=C(/C=C/C(C)=C/C=C/C(C)=C/C(=O)Nc2cc(Cl)ccc2O)C(C)(C)CCC1 [Compound 12, N-(5′-chloro-2′-hydroxyphenyl)retinamide] | − |  |
| 139 to 140 | CC1=C(/C=C/C(C)=C/C=C/C(C)=C/C(=O)Nc2cc(Cl)c(O)c(Cl)c2)C(C)(C)CCC1 [Compound 13, N-(3′,5′-dichloro-4′-hydroxyphenyl)retinamide] | − |  |
| 140 to 142 | CC1=C(/C=C/C(C)=C/C=C/C(C)=C/C(=O)Nc2cc(Cl)c(C)c(Cl)c2O)C(C)(C)CCC1 [Compound 15, N-(3′,5′-dichloro-2′-hydroxy-4′-methylphenyl)retinamide] | − |  |
| 112 to 117 | CC1=C(/C=C/C(C)=C/C=C/C(C)=C/C(=O)Nc2ccc(O)cc2[N+](=O)[O-])C(C)(C)CCC1 [Compound 16, N-(4′-hydroxy-2′-nitrophenyl)retinamide] | − |  |
| 152 to 153.5 | CC1=C(/C=C/C(C)=C/C=C/C(C)=C/C(=O)Nc2ccc([N+](=O)[O-])cc2O)C(C)(C)CCC1 [Compound 18, N-(2′-hydroxy-4′-nitrophenyl)retinamide] | ++ (++ = >50% the activity of standard) | inducing apoptosis of cells (MCF-7 cells [1]): effective at inducing apopotosis |
| 151.5 to 153 | CC1=C(/C=C/C(C)=C/C=C/C(C)=C/C(=O)Nc2cc([N+](=O)[O-])ccc2O)C(C)(C)CCC1 [Compound 19, N-(2′-hydroxy-5′-nitrophenyl)retinamide] | ++ (++ = >50% the activity of standard) |  |
